# Experimental data reported in patent publication US20060252807A1, “Novel ortho-terphenyl inhibitors of p38 kinase and methods of treating inflammatory disorders” (Kalypsys, Inc., priority 2005, published 2006).
# pIC50: −log10 of the molar value.
# Target: T1, active p38 alpha enzyme (Upstate Biotechnology) (Homo sapiens, UniProt Q16539)
# T1 construct: purchased Upstate Biotechnology
# Assay: p38α biochemical assay (ATP turnover, luminescent detection, Cambrex PKlight)
# Conditions: p38α biochemical assay, Table 1 Biological Activity
# In short: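 Luminescent ATP-depletion readout measures total ATP turnover by p38α phosphorylating whole MapkapK2 protein. ATP 1.4 uM final; 30C, 2 h. Compounds delivered from DMSO.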
# T1 sequence (Q16539 whole entry): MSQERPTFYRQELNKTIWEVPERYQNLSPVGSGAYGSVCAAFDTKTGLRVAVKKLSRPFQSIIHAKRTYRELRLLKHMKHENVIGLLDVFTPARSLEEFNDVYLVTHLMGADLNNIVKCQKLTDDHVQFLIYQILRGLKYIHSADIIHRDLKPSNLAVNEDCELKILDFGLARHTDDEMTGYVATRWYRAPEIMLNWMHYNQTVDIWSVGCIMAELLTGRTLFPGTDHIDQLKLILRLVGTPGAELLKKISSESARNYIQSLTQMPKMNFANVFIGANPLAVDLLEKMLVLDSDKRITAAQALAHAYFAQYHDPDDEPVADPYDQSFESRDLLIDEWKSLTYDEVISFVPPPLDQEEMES
row,Compound,pIC50
1,CC(C)NC(=O)c1csc(-c2oc(CNC(=O)c3cc(F)c(F)cc3[N+](=O)[O-])nc2-c2ccc(F)cc2)n1 [Example 278],≥ 6.00
2,CC(C)NC(=O)c1csc(-c2oc(CNC(=O)Cc3ccc(C(F)(F)F)cc3)nc2-c2ccc(F)cc2)n1 [Example 279],< 6.00
3,CC(C)Cc1ccc(C(C)C(=O)NCc2nc(-c3ccc(F)cc3)c(-c3nc(C(=O)NC(C)C)cs3)o2)cc1 (stereo not shown) [Example 280],< 6.00
4,CC(C)NC(=O)c1csc(-c2oc(CNC(=O)c3cc(Cl)c(O)c(Cl)c3)nc2-c2ccc(F)cc2)n1 [Example 281],≥ 6.00
5,CC(C)NC(=O)c1csc(-c2oc(CNC(=O)c3c(F)c(F)c(F)c(F)c3F)nc2-c2ccc(F)cc2)n1 [Example 282],≥ 6.00
6,COc1cc(OC)c(C(=O)NCc2nc(-c3ccc(F)cc3)c(-c3nc(C(=O)NC(C)C)cs3)o2)c(OC)c1 [Example 283],≥ 6.00
7,COc1cc(OC)c(C(=O)NCc2nc(-c3ccc(F)cc3)c(-c3nc(C(=O)NC(C)C)cs3)o2)cc1OC [Example 284],< 6.00
8,COc1cc(C(=O)NCc2nc(-c3ccc(F)cc3)c(-c3nc(C(=O)NC(C)C)cs3)o2)cc(OC)c1OC [Example 285],< 6.00
9,COc1ccc(C(=O)NCc2nc(-c3ccc(F)cc3)c(-c3nc(C(=O)NC(C)C)cs3)o2)c(OC)c1OC [Example 286],< 6.00
10,CC(C)NC(=O)c1csc(-c2oc(CNC(=O)c3ccccc3Cc3ccccc3)nc2-c2ccc(F)cc2)n1 [Example 287],< 6.00
11,CC(C)NC(=O)c1csc(-c2oc(CNC(=O)c3cccc(Oc4ccccc4)c3)nc2-c2ccc(F)cc2)n1 [Example 288],< 6.00
12,CC(C)NC(=O)c1csc(-c2oc(CNC(=O)c3ccccc3Oc3ccccc3)nc2-c2ccc(F)cc2)n1 [Example 289],< 6.00
13,CC(C)NC(=O)c1csc(-c2oc(CNC(=O)c3ccc(Oc4ccccc4)cc3)nc2-c2ccc(F)cc2)n1 [Example 290],< 6.00
14,CC(C)NC(=O)c1csc(-c2oc(CNC(=O)c3ccc(-c4ccc(O)cc4)cc3)nc2-c2ccc(F)cc2)n1 [Example 291],≥ 6.00
15,Cc1cc(C(=O)NCc2nc(-c3ccc(F)cc3)c(-c3nc(C(=O)NC(C)C)cs3)o2)ccc1Br [Example 292],< 6.00
16,Cc1ccc(C(=O)NCc2nc(-c3ccc(F)cc3)c(-c3nc(C(=O)NC(C)C)cs3)o2)cc1Br [Example 293],< 6.00
17,CC(C)NC(=O)c1csc(-c2oc(CNC(=O)Cc3ccc(Br)cc3)nc2-c2ccc(F)cc2)n1 [Example 294],< 6.00

row,Compound,pIC50
1,CC(C)NC(=O)c1csc(-c2oc(CNC(=O)C3CCCN3C(=O)OC(C)(C)C)nc2-c2ccc(F)cc2)n1 (stereo not shown) [Example 295],< 6.00
2,CC(C)NC(=O)c1csc(-c2oc(CNC(=O)/C=C/c3ccccc3C(F)(F)F)nc2-c2ccc(F)cc2)n1 [Example 296],< 6.00
3,CCOc1ccc2ccccc2c1C(=O)NCc1nc(-c2ccc(F)cc2)c(-c2nc(C(=O)NC(C)C)cs2)o1 [Example 297],< 6.00
4,CC(C)NC(=O)c1csc(-c2oc(CNC(=O)C(NC(=O)OC(C)(C)C)C(C)C)nc2-c2ccc(F)cc2)n1 (stereo not shown) [Example 298],< 6.00
5,CC(C)NC(=O)c1csc(-c2oc(CNC(=O)C(NC(=O)OC(C)(C)C)C(C)C)nc2-c2ccc(F)cc2)n1 (stereo not shown) [Example 299],< 6.00
6,CC(C)NC(=O)c1csc(-c2oc(CNC(=O)CCc3cccc(C(F)(F)F)c3)nc2-c2ccc(F)cc2)n1 [Example 300],≥ 6.00
7,CC1=NN(c2ccc(C(=O)NCc3nc(-c4ccc(F)cc4)c(-c4nc(C(=O)NC(C)C)cs4)o3)cc2)C(=O)C1 [Example 301],≥ 6.00
8,Cc1nc(Br)sc1C(=O)NCc1nc(-c2ccc(F)cc2)c(-c2nc(C(=O)NC(C)C)cs2)o1 [Example 302],≥ 6.00
9,CC(C)NC(=O)c1csc(-c2oc(CNC(=O)c3c4ccccc4cc4ccccc34)nc2-c2ccc(F)cc2)n1 [Example 303],≥ 6.00
10,CC(C)NC(=O)c1csc(-c2oc(CNC(=O)c3cc(C(C)C)cc(C(C)C)c3O)nc2-c2ccc(F)cc2)n1 [Example 304],≥ 6.00
11,CC(=O)NC(Cc1ccc(O)cc1)C(=O)NCc1nc(-c2ccc(F)cc2)c(-c2nc(C(=O)NC(C)C)cs2)o1 (stereo not shown) [Example 305],≥ 6.00
12,CC(C)NC(=O)c1csc(-c2oc(CNC(=O)c3c(Cl)cc(Cl)cc3Cl)nc2-c2ccc(F)cc2)n1 [Example 306],≥ 6.00
13,COc1cc(C(=O)NCc2nc(-c3ccc(F)cc3)c(-c3nc(C(=O)NC(C)C)cs3)o2)c([N+](=O)[O-])cc1OC [Example 307],≥ 6.00
14,CC(C)NC(=O)c1csc(-c2oc(CNC(=O)c3ccc(OCc4ccccc4)cc3)nc2-c2ccc(F)cc2)n1 [Example 308],≥ 6.00
15,CC(C)NC(=O)c1csc(-c2oc(CNC(=O)CCc3ccccc3Br)nc2-c2ccc(F)cc2)n1 [Example 309],< 6.00
16,CC(C)NC(=O)c1csc(-c2oc(CNC(=O)CCc3cccc(Br)c3)nc2-c2ccc(F)cc2)n1 [Example 310],< 6.00

# The remaining lines, values ahead:
row,pIC50,Compound
1,< 6.00,CC(C)NC(=O)c1csc(-c2oc(CNC(=O)C3CCCCN3C(=O)OC(C)(C)C)nc2-c2ccc(F)cc2)n1 (stereo not shown) [Example 311]
2,≥ 6.00,CC(C)NC(=O)c1csc(-c2oc(CNC(=O)c3ccc(Oc4cccc(O)c4)cc3)nc2-c2ccc(F)cc2)n1 [Example 312]
3,≥ 6.00,COc1ccc2cc(C(C)C(=O)NCc3nc(-c4ccc(F)cc4)c(-c4nc(C(=O)NC(C)C)cs4)o3)ccc2c1 (stereo not shown) [Example 313]
4,≥ 6.00,CC(C)NC(=O)c1csc(-c2oc(CNC(=O)C3CN(C(=O)OC(C)(C)C)CCN3)nc2-c2ccc(F)cc2)n1 (stereo not shown) [Example 314]
5,≥ 6.00,CC(C)NC(=O)c1csc(-c2oc(CNC(=O)C3CN(C(=O)OC(C)(C)C)CCN3)nc2-c2ccc(F)cc2)n1 (stereo not shown) [Example 315]
6,≥ 6.00,COc1ccc(Br)c(C(=O)NCc2nc(-c3ccc(F)cc3)c(-c3nc(C(=O)NC(C)C)cs3)o2)c1 [Example 316]
7,< 6.00,CC(C)NC(=O)c1csc(-c2oc(CNC(=O)C3CC(O)CN3C(=O)OC(C)(C)C)nc2-c2ccc(F)cc2)n1 (stereo not shown) [Example 317]
8,< 6.00,CC(C)NC(=O)c1csc(-c2oc(CNC(=O)C(C(C)C)N(C)C(=O)OC(C)(C)C)nc2-c2ccc(F)cc2)n1 (stereo not shown) [Example 318]
9,≥ 6.00,CC(C)NC(=O)c1csc(-c2oc(CNC(=O)c3ccc(C(F)(F)F)cc3[N+](=O)[O-])nc2-c2ccc(F)cc2)n1 [Example 319]
10,≥ 6.00,CC(C)NC(=O)c1csc(-c2oc(CNC(=O)c3cc(Br)ccc3Cl)nc2-c2ccc(F)cc2)n1 [Example 320]
11,< 6.00,CC(C)NC(=O)c1csc(-c2oc(CNC(=O)c3ccc(Cl)c(Br)c3)nc2-c2ccc(F)cc2)n1 [Example 321]
12,≥ 6.00,CC(C)NC(=O)c1csc(-c2oc(CNC(=O)c3ccccc3C(=O)c3ccc(O)cc3)nc2-c2ccc(F)cc2)n1 [Example 322]
13,< 6.00,CC(C)NC(=O)c1csc(-c2oc(CNC(=O)c3ccccc3C(=O)c3ccc(F)cc3)nc2-c2ccc(F)cc2)n1 [Example 323]
14,< 6.00,CC(C)NC(=O)c1csc(-c2oc(CNC(=O)C(C)c3ccc(-c4ccccc4)c(F)c3)nc2-c2ccc(F)cc2)n1 (stereo not shown) [Example 324]
15,< 6.00,CC(C)NC(=O)c1csc(-c2oc(CNC(=O)C3CCCN3C(=O)OCc3ccccc3)nc2-c2ccc(F)cc2)n1 (stereo not shown) [Example 327]
16,< 6.00,CCC(C)C(NC(=O)OC(C)(C)C)C(=O)NCc1nc(-c2ccc(F)cc2)c(-c2nc(C(=O)NC(C)C)cs2)o1 (stereo not shown) [Example 328]
